According to PubChem BioAssay (NCI):
Values joined by “and” are separate entries in the source; they are usually repeats but may differ in a detail not shown here. Identical values can stand only once.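 Step 1: Grow cells in 96-well plates. Step 2: Expose to compound for 48 hours at 5 concentrations. Step 3: Interpolate endpoints linearly; if unreached, use highest concentration. GI50 marks 50% less growth. TGI is the concentration that stops growth completely.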

Assays:
Assay in all cases: NCI tumour cell line growth inhibition, 48 h
MDA-MB-231 breast = tested on: MDA-MB-231 breast
PC-3 prostate = tested on: PC-3 prostate
NCI/ADR-RES ovarian = tested on: NCI/ADR-RES ovarian
BT-549 breast = tested on: BT-549 breast
DLD-1 colon = tested on: DLD-1 colon
LXFL 529 NSCLC = tested on: LXFL 529 NSCLC
M19-MEL melanoma = tested on: M19-MEL melanoma
SNB-78 CNS = tested on: SNB-78 CNS

SMILES	GI50 (MDA-MB-231 breast)	TGI (MDA-MB-231 breast)	GI50 (PC-3 prostate)	TGI (PC-3 prostate)	GI50 (NCI/ADR-RES ovarian)	TGI (NCI/ADR-RES ovarian)	TGI (BT-549 breast)	GI50 (BT-549 breast)	TGI (DLD-1 colon)	TGI (LXFL 529 NSCLC)	TGI (M19-MEL melanoma)	TGI (SNB-78 CNS)
COc1ccc(OC)c(Cn2cc3c(c2-c2ccccc2)CCc2cnoc2-3)c1	5.98 µM	> 100 µM	8.73 µM	> 100 µM	2.48 µM	7.55 µM						
CC1(C)CC2C(=O)c3ccccc3NC2c2ccccc21 (configuration not stated)				> 100 µM		> 100 µM	> 100 µM					
C=C1C(=O)O[C@H]2[C@H]1CC/C(COC(=O)NCC(C)c1ccc(CC(C)C)cc1)=C\CC[C@@]1(C)O[C@@H]21 (some centres not stated)	0.612 µM	1.27 µM	0.691 µM	1.76 µM	3.54 µM	10.1 µM	2.25 µM	0.775 µM				
CC(=O)/C(=C/c1ccccc1F)C(=O)c1ccccc1		92.5 µM		> 100 µM		> 100 µM	> 100 µM					
CCC1=CC2CN(C1)Cc1c([nH]c3ccccc13)[C@@](C(=O)OC)(c1cc3c(cc1OC)N(C)[C@H]1[C@@](O)(C(=O)OC)[C@H](OC(C)=O)[C@]4(CC)C=CCN5CC[C@]31[C@@H]54)C2 (some centres not stated)	0.0182 µM and 0.0211 µM	5.74 µM and 0.873 µM	< 0.005 µM	32.6 µM and > 100 µM	1.05 µM and 1.85 µM			< 0.005 µM and 0.043 µM				
Cn1cc(C2=C(c3cn(C4CCN(Cc5ccccn5)CC4)c4ccccc34)C(=O)NC2=O)c2ccccc21	> 100 µM	> 100 µM	3.97 µM	> 100 µM	4.34 µM	> 100 µM	> 100 µM	7.56 µM				
CCN(C(=O)/C=C/c1ccco1)c1ccccc1		> 100 µM		> 100 µM		> 100 µM	> 100 µM					
CN(C)CCNC(=O)Cn1ccc(=O)c2c([N+](=O)[O-])cccc21		> 100 µM		> 100 µM			> 100 µM					
O=C(O)c1ccccc1/C=N/N=C1c2ccccc2-c2ccccc21		> 100 µM		83.4 µM		> 100 µM	> 100 µM					
O=C1CCCCN1CCCCC#Cc1cccc(C#Cc2cccnc2)c1	12 µM	27.7 µM	11.6 µM	> 100 µM	17.5 µM	85.4 µM	74.7 µM	18.6 µM				
COc1cnc2c(c1)C(=O)c1c-2n(CCCN2CCN(C)CC2)c(=O)c2cc([N+](=O)[O-])ccc12					0.323 µM	5.82 µM						
COC(=O)C1(C)Cc2cc(OC(C)=O)c(OC(C)=O)cc2N1 (configuration not stated)	17.8 µM	56.5 µM	9.64 µM	> 72.6 µM	16 µM	> 75.5 µM	22 µM	4.93 µM				
COc1ccc(C(=O)c2ccc([As]=O)cc2)cc1 (configuration not stated)	0.087 µM	0.242 µM	0.056 µM	0.185 µM			0.315 µM	0.166 µM				
C=C1C(=O)O[C@H]2[C@H]1CC/C(C=Nc1c(N)cc(C(F)(F)F)cc1Br)=C\CC[C@@]1(C)O[C@@H]21	1.33 µM	3.15 µM	1.5 µM	3.85 µM	2.31 µM		2.91 µM	1.41 µM				
CCNC(=O)c1noc(-c2cc(C(C)C)c(O)cc2O)c1-c1ccc(CN2CCOCC2)cc1	0.0747 µM	15.7 µM	0.0648 µM	66.6 µM	0.313 µM	44.1 µM	30.4 µM	8.36 µM				
CCCCn1c(-c2ccc(C(=O)O/N=C(\N)c3ccc4c(c3)OCO4)cc2)nc(-c2ccccc2)c1-c1ccccc1	2.99 µM	> 100 µM	2.59 µM	> 100 µM	1.52 µM	4.48 µM	7.84 µM	2.61 µM				
COC(=O)C1(C(=O)OC)CC(=O)c2cc3c(cc2-c2c(cc(OC)c(OC)c2OC)C1)OCO3									> 211 µM	> 211 µM	> 211 µM	
CCC(=O)Nc1nc2c(ncn2C2OC(COC(=O)CC)C(OC(=O)CC)C2OC(=O)CC)c(=O)[nH]1 (configuration not stated)										> 100 µM	> 100 µM	> 100 µM
CC(C)CCC1(CCN)C(=O)NC(=O)NC1=O		> 100 µM		> 100 µM		> 100 µM	> 100 µM					
N#CNC(N)=Nc1ccc(Cl)cc1		> 100 µM		> 100 µM		> 100 µM	> 100 µM					
c1c[nH]c(CN2CCOCC2)n1		> 100 µM		> 100 µM		> 100 µM	> 100 µM					

SMILES	GI50 (MDA-MB-231 breast)	TGI (MDA-MB-231 breast)	GI50 (PC-3 prostate)	TGI (PC-3 prostate)	GI50 (NCI/ADR-RES ovarian)	TGI (NCI/ADR-RES ovarian)	TGI (BT-549 breast)	GI50 (BT-549 breast)	TGI (DLD-1 colon)	TGI (LXFL 529 NSCLC)	TGI (M19-MEL melanoma)	TGI (SNB-78 CNS)
CN1/C(=C\C=C\C2=[N+](C)c3ccccc3C2(C)C)C(C)(C)c2ccccc21	0.248 µM	1.58 µM	0.0455 µM	5.97 µM	1.29 µM	4.97 µM	1.64 µM	0.0903 µM				
COc1ccc2c(c1)/C(=C/c1cc(OC)c(OC)c(OC)c1)C(=O)N2	1.51 µM	66.8 µM	0.364 µM	> 100 µM	0.142 µM	1.74 µM	> 100 µM	1.37 µM				
O=S(=O)(CCCl)c1ccc(Cl)cc1	2.55 µM	9.03 µM	5.82 µM	22.9 µM	3.86 µM	40.6 µM	12.6 µM	3.36 µM				
Oc1ccccc1-c1nn(CNc2ccccc2Cl)c(=S)o1	> 100 µM	> 100 µM	99 µM	> 100 µM	18.2 µM	72.7 µM	> 100 µM	> 100 µM				
CC(C)(C)OC(=O)NCCCCCCCn1c2c(c3ccccc3c1=O)C(=O)c1ccccc1-2	29.5 µM	> 100 µM	25.4 µM	> 100 µM	26.1 µM	> 100 µM	46.6 µM	22.4 µM				
O=C(N[C@@H](C[Se][Se]C[C@H](NC(=O)c1ccc(Br)cc1F)C(=O)O)C(=O)O)c1ccc(Br)cc1F	> 100 µM	> 100 µM	> 100 µM	> 100 µM	> 100 µM	> 100 µM	> 100 µM	> 100 µM				
Nc1ccc(/C=C/C(=O)NCc2cc3cc(-c4ccc(C(=O)N5CCC(F)(F)CC5)cc4)cc(-c4ccc(F)cc4)c3o2)cn1	15.1 µM	> 100 µM	0.534 µM	> 100 µM	4.91 µM	> 100 µM	> 100 µM	5.95 µM				
O=S(=O)(NCCCNc1nccc(-c2c(-c3ccc(F)cc3)nc3sccn23)n1)c1ccc2ccccc2c1	3.8 µM	> 100 µM	4.36 µM	> 100 µM	3.89 µM	> 100 µM	> 100 µM	4.34 µM				
CNC(=O)c1nn(C)c2c1C(C)(C)Cc1cnc(Nc3ccc(N4CCN(C)CC4)cc3)nc1-2	0.523 µM	> 10 µM	0.368 µM	> 10 µM	3 µM	> 10 µM	> 8.77 µM	1.61 µM				
C=C1C(O)CC[C@]2(C)C1C1OC(C)(C)O[C@]13CC(=O)C(C)=C([C@H]1OC(C)(C)OC12)C3(C)C (some centres not stated)		> 100 µM				> 100 µM	> 100 µM					
O=c1cc(/C=C/c2ccccc2)[nH]c2cc3c(cc12)OCO3		9.18 µM				5.38 µM	22 µM					
c1ccc2[nH]c(-c3ccc(Nc4nc(N5CCCCC5)nc(N5CCOCC5)n4)cc3)nc2c1	2.5 µM	7.52 µM	3.05 µM	9.13 µM	4.69 µM	55.2 µM	5.2 µM	2.07 µM				
O=C1OCC2=C1C(c1ccccc1)c1cc3c(cc1N2CCO)OCO3 (configuration not stated)	24.8 µM	> 50 µM	4.66 µM	> 50 µM	2.08 µM	17.8 µM	> 50 µM	4.93 µM				
Cc1ccc(NC(=O)c2cc(S(=O)(=O)N3C(=O)NC(=O)NS3(=O)=O)c(S)cc2Cl)cc1	20.4 µM	57.9 µM	32.3 µM	> 100 µM	> 100 µM	> 100 µM	63.9 µM	24.2 µM				
O=C(O)[C@@H](Cc1ccc2ccccc2c1)NC(=O)n1c2ccccc2c2ccccc21	3.65 µM	17.3 µM	1.87 µM	15.8 µM	2.83 µM	9.65 µM	14.2 µM	2.85 µM				
O=C(Nc1ccc(Cl)c(Cl)c1)NS(=O)(=O)c1cnccc1Oc1ccc(F)cc1	5.5 µM	38.5 µM	3.25 µM	> 100 µM	4.38 µM	> 100 µM	40.4 µM	6.84 µM				
CC(=O)c1ccc(O)c(CN(C2CCCCC2)C2CCCCC2)c1O		> 100 µM		> 100 µM		> 100 µM	> 100 µM					
CCCCCCCCCCCCCCCC[N+]1(C)CCOCC1	1.39 µM	3.94 µM	0.655 µM	2.43 µM	18.1 µM	44.9 µM	4.7 µM	2.2 µM				
O=c1oc2ccc(I)cc2c(=O)n1-c1ccc(Cl)cc1F	1.27 µM	5.71 µM	2 µM	7.11 µM	1.87 µM	21.7 µM	3.8 µM	1.03 µM				
O=C(N/N=C/c1ccccc1O)c1ccccc1	5.11 µM	> 100 µM	6.53 µM	> 100 µM	1.94 µM	27.6 µM	> 100 µM	3.6 µM				
